Assay results from US12371454B2, “Cyclic peptide compound having Kras inhibitory action” (priority 2019, dated 2025).
Starred links: 1 amine or outer side, 2 acyl side, 3 side chain; linkers in the order of their positions; H or OH if unused. Positions of bridges follow the written chain, without caps; N, C: chain ends. Non-standard residues stand in square brackets, D forms with d. Residues, ends and D or L forms follow the SMILES beside them. *: point of attachment. hPhe(3-Cl-4-CF3) = N[C@@H](CCc1ccc(C(F)(F)F)c(Cl)c1)C(=O)O; hPhe(3-F,4-CF3) = N[C@@H](CCc1ccc(C(F)(F)F)c(F)c1)C(=O)O; NMePhe(4-CF3) = CN[C@@H](Cc1ccc(C(F)(F)F)cc1)C(=O)O; 3Oxa8azabicyclo(3.2.1)octane = C1CC2COCC1N2*; NMeAbu(4,4,4-F3) = CN[C@@H](CC(F)(F)F)C(=O)O; NMePhe(4-Cl) = CN[C@@H](Cc1ccc(Cl)cc1)C(=O)O; NMePhe(4-Me) = CN[C@@H](Cc1ccc(C)cc1)C(=O)O; NMePhe(2-Cl) = CN[C@@H](Cc1ccccc1Cl)C(=O)O; NMedβ3hAla = C[C@H](CC(=O)[*:2])N(C)[*:1]; NMeAla(cPent) = CN[C@@H](CC1CCCC1)C(=O)O; Phe(3-I) = N[C@@H](Cc1cccc(I)c1)C(=O)O; NMeCha = CN[C@@H](CC1CCCCC1)C(=O)O; NMeChg = CN[C@H](C(=O)O)C1CCCCC1; NMeI = CC[C@H](C)[C@H](NC)C(=O)O; Gly(cBu) = N[C@H](C(=O)O)C1CCC1; NMeD = CN[C@@H](CC(=O)O)C(=O)O; NMeL = CN[C@@H](CC(C)C)C(=O)O; NMeV = CN[C@H](C(=O)O)C(C)C; d(β3hA) = C[C@@H](N)CC(=O)O; dIva = CC[C@@](C)(N)C(=O)O; NMeA = CN[C@@H](C)C(=O)O; Nle = CCCC[C@H](N)C(=O)O; Piperidide = C1CCN(*)CC1; Ac5c = NC1(C(=O)O)CCCC1; Aze = O=C(O)[C@@H]1CCN1; Sar = CNCC(=O)O

Legend:
[1] = target: T1, Kras and SOS1 (biotin-tagged human Kras loaded with GDP, His-tagged human SOS1) (Homo sapiens, UniProt P01116, G12D); assay: Protein-protein interaction inhibition between Kras and SOS1 (KrasGl2D-SOS PPI) using AlphaScreen; format: binding; conditions: AlphaScreen; biotin-tagged human Kras loaded with GDP, His-tagged human SOS1; read-out: KRAS G12D-SOS PPI IC50
T1 construct: made in house; host or cells: E. coli (stated for Kras only)
Method in brief: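 Energy transfer from nickel-chelate donor beads bound to His-SOS1 to streptavidin acceptor beads bound to biotin-Kras, expressed in E. coli and loaded with GDP after purification, was monitored. Donors were excited at 680 nm; singlet oxygen reaching acceptors gave emission read at 520-620 nm.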

[2] = tested on: Human pancreatic cancer cell line AsPC-1; assay: Measurement of AsPC-1 cell growth inhibition (AsPC-1 CGI); format: cell-based; conditions: 96 h
Method in brief: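 AsPC-1 cells in 15% FBS RPMI-1640 were exposed to test compound for 96 hours at 37° C, with CellTiter-Glo as endpoint.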

T1 sequence (P01116 1-188 isoform P01116-2 G12D): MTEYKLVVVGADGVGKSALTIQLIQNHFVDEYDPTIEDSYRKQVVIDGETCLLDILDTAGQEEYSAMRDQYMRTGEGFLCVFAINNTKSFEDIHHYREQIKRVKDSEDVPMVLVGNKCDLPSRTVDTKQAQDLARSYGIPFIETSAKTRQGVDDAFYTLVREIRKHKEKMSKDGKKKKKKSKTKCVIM

| SMILES | IC50 [1] | IC50 [2] |
| --- | --- | --- |
| CCCC[C@@H]1NC(=O)[C@H](Cc2cccc(I)c2)NC(=O)CN(C)C(=O)[C@H](Cc2ccc(Cl)cc2)N(C)C(=O)CN(C)C(=O)CN(C)C(=O)[C@H]([C@@H](C)CC)NC(=O)[C@H](CC(C)C)N(C)C(=O)C[C@@H](C(=O)N2CCCCC2)N(C)C(=O)[C@H](CC(C)C)NC(=O)[C@H](Cc2ccccc2Cl)N(C)C1=O [Compound 168] ([NMeL]I[Sar][Sar][NMePhe(4-Cl)][Sar][Phe(3-I)][Nle][NMePhe(2-Cl)]L[NMeD]-Piperidide; lactam N-11) | 29 nM | 100 to 500 nM |
| CC[C@H](C)[C@@H]1NC(=O)[C@H](CC(F)(F)F)N(C)C(=O)C[C@@H](C(=O)N2C3CCC2COC3)N(C)C(=O)[C@H](C2CCCCC2)N(C)C(=O)C2(CCCC2)NC(=O)[C@@H]2CCCN2C(=O)[C@H](CCc2ccc(C(F)(F)F)c(Cl)c2)NC(=O)CN(C)C(=O)[C@H](Cc2ccc(C(F)(F)F)cc2)N(C)C(=O)CN(C)C(=O)CN(C)C1=O [Compound 173] ([NMeAbu(4,4,4-F3)]I[Sar][Sar][NMePhe(4-CF3)][Sar][hPhe(3-Cl-4-CF3)]P[Ac5c][NMeChg][NMeD]-{3Oxa8azabicyclo(3.2.1)octane}; lactam N-11) | 0.56 nM | 20 to 50 nM |
| CC[C@H](C)[C@@H]1NC(=O)[C@H](CC(C)C)N(C)C(=O)C[C@@H](C)NC(=O)[C@H](C(C)C)N(C)C(=O)C2(CCCC2)NC(=O)[C@@H]2CCCN2C(=O)[C@H](CCc2ccc(C(F)(F)F)c(F)c2)NC(=O)CN(C)C(=O)[C@H](CC2CCCCC2)N(C)C(=O)[C@@H]2CCN2C(=O)CN(C)C1=O [Compound 211] (cyclo([Ac5c][NMeV][d(β3hA)][NMeL]I[Sar][Aze][NMeCha][Sar][hPhe(3-F,4-CF3)]P)) | 43 nM | 100 to 500 nM |
| CC[C@H](C)[C@@H]1NC(=O)[C@H](CC(C)C)N(C)C(=O)C[C@@H](C(=O)N(C)C)N(C)C(=O)[C@H]([C@@H](C)CC)N(C)C(=O)C2(CCCC2)NC(=O)[C@H](Cc2ccccc2Cl)N(C)C(=O)[C@H](CCc2ccc(C(F)(F)F)c(Cl)c2)NC(=O)CN(C)C(=O)[C@H](Cc2ccc(C)cc2)N(C)C(=O)[C@@H]2CCN2C(=O)[C@H](C)N(C)C1=O [Compound 216] ([NMeL]I[NMeA][Aze][NMePhe(4-Me)][Sar][hPhe(3-Cl-4-CF3)][NMePhe(2-Cl)][Ac5c][NMeI][NMeD]-NMe2; lactam N-11) | 8 nM | 100 to 500 nM |
| CC[C@H](C)[C@@H]1NC(=O)[C@H](CC(C)C)N(C)C(=O)C[C@@H](C(=O)N2CCCCC2)N(C)C(=O)[C@H](C(C)C)N(C)C(=O)C2(CCCC2)NC(=O)[C@@H]2CCCN2C(=O)[C@H](CCc2ccc(C(F)(F)F)c(Cl)c2)NC(=O)CN(C)C(=O)[C@H](CC2CCCC2)N(C)C(=O)CN(C)C(=O)CN(C)C1=O [Compound 220] ([NMeL]I[Sar][Sar][NMeAla(cPent)][Sar][hPhe(3-Cl-4-CF3)]P[Ac5c][NMeV][NMeD]-Piperidide; lactam N-11) | 3.1 nM | 100 to 500 nM |
| CC(C)C[C@H]1C(=O)N[C@@H](C2CCC2)C(=O)N(C)CC(=O)N(C)CC(=O)N(C)[C@@H](CC2CCCCC2)C(=O)N(C)CC(=O)N[C@@H](CCc2ccc(C(F)(F)F)c(Cl)c2)C(=O)N2CCC[C@H]2C(=O)NC2(CCCC2)C(=O)N(C)[C@@H](C(C)C)C(=O)N(C)[C@H](C(=O)N2CCCCC2)CC(=O)N1C [Compound 221] ([NMeL][Gly(cBu)][Sar][Sar][NMeCha][Sar][hPhe(3-Cl-4-CF3)]P[Ac5c][NMeV][NMeD]-Piperidide; lactam N-11) | 2.8 nM | 100 to 500 nM |
| CC[C@H](C)[C@@H]1NC(=O)[C@H](CC(C)C)N(C)C(=O)C[C@@H](C)N(C)C(=O)[C@H](C(C)C)N(C)C(=O)[C@@](C)(CC)NC(=O)[C@@H]2CCCN2C(=O)[C@H](CCc2ccc(C(F)(F)F)c(Cl)c2)NC(=O)CN(C)C(=O)[C@H](CC2CCCCC2)N(C)C(=O)CN(C)C(=O)CN(C)C1=O [Compound 223] (cyclo(I[Sar][Sar][NMeCha][Sar][hPhe(3-Cl-4-CF3)]P[dIva][NMeV][NMedβ3hAla][NMeL])) | 18 nM | 100 to 500 nM |
| CC[C@H](C)[C@@H]1NC(=O)[C@H](CC(C)C)N(C)C(=O)C[C@@H](C(=O)N2CCCCC2)N(C)C(=O)[C@H](C(C)C)N(C)C(=O)C2(CCCC2)NC(=O)[C@@H]2CCCN2C(=O)[C@H](CCc2ccc(C(F)(F)F)c(F)c2)NC(=O)CN(C)C(=O)[C@H](Cc2ccc(Cl)cc2)N(C)C(=O)CN(C)C(=O)CN(C)C1=O [Compound 229] ([NMeL]I[Sar][Sar][NMePhe(4-Cl)][Sar][hPhe(3-F,4-CF3)]P[Ac5c][NMeV][NMeD]-Piperidide; lactam N-11) | 6.7 nM | 100 to 500 nM |
